Data: US20110190280A1, “Thiazole And Oxazole Kinase Inhibitors” (priority 2007, published 2011)
Where a name gives a salt, the structure may show the parent alone.

Legend:
B-Raf = B-Raf (Homo sapiens, UniProt P15056); experiment: B-Raf Accelerated MEK ATPase assay (BRAMA); assay type: biochemical; conditions: BRAMA enzyme assay; class by pIC50; read-out: B-Raf Activity
Summary of the method: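 B-Raf activity read as intrinsic MEK ATPase: catalytic activated RAF with non-phosphorylated MEK drives ADP formation, coupled through pyruvate kinase and lactate dehydrogenase to NADH oxidation, independent of ERK phosphorylation.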

EGFR = EGFR (Homo sapiens, UniProt P00533); experiment: EGFR kinase autophosphorylation assay (peptide phosphorylation, HTRF); assay type: biochemical; conditions: 0.8 nM EGFR, class by pIC50
Protocol: (§1) A selection of compounds of the present invention were tested for inhibitory activity against EGFR and ErbB2 kinases in autophosphorylation assays.
(§2) The method measures the ability of the isolated enzyme to catalyse the transfer of the gamma-phosphate from ATP onto the tyrosine residue of a biotinylated synthetic peptide referenced “Peptide C” in Brignola, P. S., et al, (2002) J. Biol. Chem. 277(2):1576-1585. The extent of tyrosine phosphorylation was measured using an anti-phosphotyrosine antibody, and quantified by homogenous time-resolved fluorescence (HTRF).
(§3) Reactions were performed in black 384-well polystyrene flat-bottom plates in a final volume of 20 ul. Assays were performed by adding 10 μl of each of the following solutions, substrate Mix and enzyme mix: The Substrate mix contained 100 mM 3-[N-morpholino]propanesulfonic acid (MOPS) (pH 7.5), 2 mM MnCl2, 20 μM ATP, 0.01% Tween-20, 0.1 mg/mL (BSA), 0.8 uM peptide substrate, and 1 mM dithiothreitol. The enzyme mix contained 100 mM MOPS (pH7.5); 0.01% Tween-20; 0.1 mg/mL BSA, and either 0.8 nM EGFR, 10 nM ErbB2, or 1 nM ErbB4
(§4) The enzyme mix was added to the compound plates and the plates were incubated at 20° C. for 1 hour. The reactions were allowed to proceed for 90 minutes at 20° C. The reactions were then terminated by the addition of 20 μl 100 mM EDTA to each well. 40 μl/well of HTRF detection mix were added to the assay plates. The final concentrations of the detection reagents were: 100 mM HEPES (pH7.5), 0.1 mg/mL BSA, 15 nM streptavidin-labeled allophycocyanin (PerkinElmer), and 1 nM europium-labeled anti-phosphotyrosine antibody (PerkinElmer). Assay plates were left unsealed and were counted in a Wallac Multilabel Counter 1420 (PerkinElmer).
(§5) Compounds under analysis were dissolved in Me2SO to 1.0 mM and serially diluted 1 to 3 with Me2SO through twelve dilutions. 1 μl of each concentration was transferred to the corresponding well of an assay plate. This creates a final compound concentration range from 0.00027 to 47.6 μM.
(§6) The data for dose responses were plotted as % Inhibition calculated with the data reduction formula 100*(1−(U1−C2)/(C1−C2)) versus concentration of compound where U is the unknown value, C1 is the average control value obtained for 4.76% DMSO, and C2 is the average control value obtained for 0.035 M EDTA. Data were fitted with a curve described by:
(§7) where Vmax is the upper asymptote, Y2 is the Y intercept, and K is the IC50. The results for each compound were recorded as pIC50s, calculated as follows: […]
(§8) In the following table: • “+” indicates no pIC50 measurement greater than 6 against EGFR or ErbB2, • “++” indicates at least one pIC50 measurement greater than 6 against EGFR or ErbB2 but no measurement greater than pIC50 of 7; and • “+++” indicates at least one pIC50 measurement of greater than 7 against EGFR or ErbB2.

ErbB2 = ErbB2 (Homo sapiens, UniProt P04626); experiment: ErbB2 kinase autophosphorylation assay (peptide phosphorylation, HTRF); assay type: biochemical; conditions: 10 nM ErbB2, HTRF; class by pIC50
Protocol: as §1, §2, §3, §4, §5, §6, §7, §8

A375P tumor cells = experiment: Cell growth inhibition assay (CellTiter-Glo), A375P; conditions: Homo sapiens, 72 h, read-out: Activity in A375P Tumor Cells;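 also: total ATP luminescence used as proxy for cell number, serial threefold compound dilutions at 0.2% DMSO, growth inhibition expressed versus DMSO vehicle-treated wells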
HT-29 tumor cells = experiment: Cell growth inhibition assay (CellTiter-Glo), HT-29; conditions: Homo sapiens, HT-29, 72 h, read-out: Activity in HT-29 Tumor Cells;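 also: ATP content read by luminescence as proxy for cell number, growth inhibition versus DMSO vehicle wells, 0.2% DMSO final, nine serial threefold compound dilutions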
Colo205 tumor cells = experiment: Cell growth inhibition assay (CellTiter-Glo), Colo205; conditions: Homo sapiens, COLO 205, 72 h, read-out: Activity in Colo205 Tumor Cells;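 also: growth measured via total ATP luminescence (CellTiter-Glo) as a proxy for cell number, inhibition expressed against DMSO-treated control wells, 3-day exposure at 0.2% final DMSO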
SK-MEL-3 tumor cells = experiment: Cell growth inhibition assay (CellTiter-Glo), SK-MEL-3; conditions: Homo sapiens, SK-MEL3, 72 h, read-out: Activity in SK-MEL-3 Tumor Cells;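 also: human melanoma cells grown with compound for 3 days in 0.2% DMSO, total ATP read by luminescence as proxy for cell number, growth inhibition versus DMSO-treated wells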
SK-MEL-28 tumor cells = experiment: Cell growth inhibition assay (CellTiter-Glo), SK-MEL-28; conditions: Homo sapiens, SK-MEL-28, 72 h, read-out: Activity in SK-MEL-28 Tumor Cells;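 also: luminescent total ATP as a proxy for cell number, threefold serial dilutions at 0.2% DMSO, percent growth inhibition versus DMSO vehicle control wells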

Chain of ErbB2 (P04626 23-1255): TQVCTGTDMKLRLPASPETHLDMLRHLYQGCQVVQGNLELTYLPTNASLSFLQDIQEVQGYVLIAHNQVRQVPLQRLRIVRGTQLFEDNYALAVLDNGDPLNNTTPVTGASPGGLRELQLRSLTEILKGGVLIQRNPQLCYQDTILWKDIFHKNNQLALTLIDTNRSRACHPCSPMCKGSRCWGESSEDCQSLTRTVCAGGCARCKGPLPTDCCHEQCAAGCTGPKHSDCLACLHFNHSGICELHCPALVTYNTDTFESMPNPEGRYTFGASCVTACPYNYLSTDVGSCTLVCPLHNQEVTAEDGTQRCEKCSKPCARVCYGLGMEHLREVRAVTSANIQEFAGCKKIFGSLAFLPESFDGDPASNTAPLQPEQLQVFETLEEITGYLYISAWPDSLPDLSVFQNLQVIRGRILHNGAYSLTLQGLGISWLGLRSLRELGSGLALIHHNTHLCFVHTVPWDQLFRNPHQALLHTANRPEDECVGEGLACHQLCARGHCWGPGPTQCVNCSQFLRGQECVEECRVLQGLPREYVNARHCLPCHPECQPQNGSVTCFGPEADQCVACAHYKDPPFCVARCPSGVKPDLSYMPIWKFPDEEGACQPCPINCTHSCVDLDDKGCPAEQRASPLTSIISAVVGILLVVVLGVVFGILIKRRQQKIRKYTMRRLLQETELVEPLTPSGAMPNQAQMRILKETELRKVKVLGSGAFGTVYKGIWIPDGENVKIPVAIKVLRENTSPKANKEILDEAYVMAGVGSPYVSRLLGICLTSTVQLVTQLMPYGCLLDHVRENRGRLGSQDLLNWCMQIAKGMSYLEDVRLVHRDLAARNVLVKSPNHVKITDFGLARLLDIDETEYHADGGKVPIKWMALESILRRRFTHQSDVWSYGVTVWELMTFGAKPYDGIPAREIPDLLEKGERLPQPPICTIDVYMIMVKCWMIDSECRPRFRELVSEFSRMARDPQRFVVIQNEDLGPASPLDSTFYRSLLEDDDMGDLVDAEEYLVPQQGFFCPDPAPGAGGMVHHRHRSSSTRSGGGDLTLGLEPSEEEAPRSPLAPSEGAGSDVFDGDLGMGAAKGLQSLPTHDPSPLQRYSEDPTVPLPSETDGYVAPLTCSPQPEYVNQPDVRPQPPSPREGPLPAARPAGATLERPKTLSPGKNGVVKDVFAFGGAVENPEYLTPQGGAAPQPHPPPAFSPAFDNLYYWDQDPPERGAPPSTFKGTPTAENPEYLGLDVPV
Chain of B-Raf (P15056 whole entry): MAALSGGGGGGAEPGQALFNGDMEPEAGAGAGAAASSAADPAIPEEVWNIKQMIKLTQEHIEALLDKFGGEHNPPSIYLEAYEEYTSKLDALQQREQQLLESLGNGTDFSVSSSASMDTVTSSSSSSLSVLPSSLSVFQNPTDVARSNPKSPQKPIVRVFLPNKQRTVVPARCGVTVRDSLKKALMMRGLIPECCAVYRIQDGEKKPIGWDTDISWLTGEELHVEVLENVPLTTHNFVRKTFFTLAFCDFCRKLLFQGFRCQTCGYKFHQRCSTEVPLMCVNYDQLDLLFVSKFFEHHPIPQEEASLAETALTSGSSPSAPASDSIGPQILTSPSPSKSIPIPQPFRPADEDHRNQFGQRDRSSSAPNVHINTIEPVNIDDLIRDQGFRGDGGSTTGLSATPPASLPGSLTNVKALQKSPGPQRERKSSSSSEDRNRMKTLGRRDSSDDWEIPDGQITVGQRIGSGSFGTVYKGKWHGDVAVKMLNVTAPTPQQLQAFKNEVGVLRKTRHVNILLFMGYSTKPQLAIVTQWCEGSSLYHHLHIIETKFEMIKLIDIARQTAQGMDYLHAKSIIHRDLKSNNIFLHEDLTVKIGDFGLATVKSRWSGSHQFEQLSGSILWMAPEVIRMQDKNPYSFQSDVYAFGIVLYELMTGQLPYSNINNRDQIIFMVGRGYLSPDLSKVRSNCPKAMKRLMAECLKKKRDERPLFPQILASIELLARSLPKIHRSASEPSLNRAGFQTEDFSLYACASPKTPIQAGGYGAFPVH
Chain of EGFR (P00533 25-1210): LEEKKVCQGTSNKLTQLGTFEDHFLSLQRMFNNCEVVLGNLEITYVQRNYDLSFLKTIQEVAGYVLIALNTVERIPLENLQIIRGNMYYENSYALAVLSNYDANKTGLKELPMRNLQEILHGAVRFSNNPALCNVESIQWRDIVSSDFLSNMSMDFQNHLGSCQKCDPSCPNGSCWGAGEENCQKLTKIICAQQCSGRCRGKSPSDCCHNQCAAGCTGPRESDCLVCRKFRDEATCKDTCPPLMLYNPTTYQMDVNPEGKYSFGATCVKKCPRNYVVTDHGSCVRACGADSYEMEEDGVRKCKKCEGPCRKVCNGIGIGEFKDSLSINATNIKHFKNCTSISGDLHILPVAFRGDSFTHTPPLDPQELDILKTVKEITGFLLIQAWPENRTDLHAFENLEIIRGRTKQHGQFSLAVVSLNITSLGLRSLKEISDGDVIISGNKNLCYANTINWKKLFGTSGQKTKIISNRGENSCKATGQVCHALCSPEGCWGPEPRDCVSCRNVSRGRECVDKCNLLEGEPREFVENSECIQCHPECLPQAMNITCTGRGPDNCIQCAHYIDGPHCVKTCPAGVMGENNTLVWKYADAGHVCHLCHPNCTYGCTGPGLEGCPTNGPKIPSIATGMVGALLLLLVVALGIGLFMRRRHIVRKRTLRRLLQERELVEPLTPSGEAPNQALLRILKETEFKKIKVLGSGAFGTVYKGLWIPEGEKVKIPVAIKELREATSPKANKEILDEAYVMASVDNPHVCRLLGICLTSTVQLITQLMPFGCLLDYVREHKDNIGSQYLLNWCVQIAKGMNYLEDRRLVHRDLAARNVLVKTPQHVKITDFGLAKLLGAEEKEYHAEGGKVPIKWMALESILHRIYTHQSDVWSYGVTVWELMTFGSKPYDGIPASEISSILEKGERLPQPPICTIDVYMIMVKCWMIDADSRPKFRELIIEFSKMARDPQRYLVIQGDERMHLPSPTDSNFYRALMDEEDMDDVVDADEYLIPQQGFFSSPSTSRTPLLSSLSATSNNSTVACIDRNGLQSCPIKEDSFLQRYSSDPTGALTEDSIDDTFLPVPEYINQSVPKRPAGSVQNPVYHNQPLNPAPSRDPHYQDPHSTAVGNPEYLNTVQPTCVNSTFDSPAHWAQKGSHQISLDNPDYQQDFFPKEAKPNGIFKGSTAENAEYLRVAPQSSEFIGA

Row | IC50 (B-Raf) | IC50 (EGFR) | IC50 (ErbB2) | IC50 (A375P tumor cells) | IC50 (HT-29 tumor cells) | IC50 (Colo205 tumor cells) | IC50 (SK-MEL-3 tumor cells) | IC50 (SK-MEL-28 tumor cells) | Compound
1 | < 100 nM | > 1000 nM | > 1000 nM | < 500 nM | < 500 nM | < 500 nM | < 500 nM | < 500 nM | CCNc1nc(-c2cc(C)cc(OC)c2)c(-c2ccnc(Nc3ccc(N4CCN(C(C)=O)CC4)nc3)n2)s1 [Example 36, N-[6-(4-Acetyl-1-piperazinyl)-3-pyridinyl]-4-{2-(ethylamino)-4-[3-methyl-5-(methyloxy)phenyl]-1,3-thiazol-5-yl}-2-pyrimidinamine]
2 | < 100 nM | > 1000 nM | > 1000 nM | < 500 nM | < 500 nM | < 500 nM | < 500 nM | < 500 nM | CCNc1nc(-c2cc(C)cc(OC)c2)c(-c2ccnc(Nc3ccc(N4CCN(C(=O)COC)CC4)nc3)n2)s1 [Example 37, 4-{2-(Ethylamino)-4-[3-methyl-5-(methyloxy)phenyl]-1,3-thiazol-5-yl}-N-(6-{4-[(methyloxy)acetyl]-1-piperazinyl}-3-pyridinyl)-2-pyrimidinamine]
3 | < 100 nM | 100 to 1000 nM | > 1000 nM | < 500 nM | < 500 nM | < 500 nM | < 500 nM | < 500 nM | CCNc1nc(-c2cccc(OC)c2)c(-c2ccnc(Nc3ccc(OC4CCN(CCS(C)(=O)=O)CC4)c(F)c3)n2)s1 [Example 41, 4-{2-(Ethylamino)-4-[3-(methyloxy)phenyl]-1,3-thiazol-5-yl}-N-[3-fluoro-4-({1-[2-(methylsulfonyl)ethyl]-4-piperidinyl}oxy)phenyl]-2-pyrimidinamine]
4 | < 100 nM | < 100 nM | < 100 nM | < 500 nM | < 500 nM | 500 to 5000 nM | < 500 nM | > 5000 nM | COCCNc1nc(-c2cccc(OC)c2)c(-c2ccnc(Nc3ccc(N4CCOCC4)c(Cl)c3)n2)s1 [Example 43, N-[3-Chloro-4-(4-morpholinyl)phenyl]-4-{2-{[2-(methyloxy)ethyl]amino}-4-[3-(methyloxy)phenyl]-1,3-thiazol-5-yl}-2-pyrimidinamine hydrochloride]
5 | < 100 nM | < 100 nM | < 100 nM | < 500 nM | < 500 nM | < 500 nM | < 500 nM | < 500 nM | CCNc1nc(-c2cccc(O)c2)c(-c2ccnc(Nc3ccc(OCCN4CCCC4)c(Cl)c3)n2)s1 [Example 44]
6 | < 100 nM | < 100 nM | < 100 nM | < 500 nM | < 500 nM | < 500 nM | < 500 nM | < 500 nM | CCNc1nc(-c2cccc(Cl)c2)c(-c2ccnc(Nc3ccc(OCCN(C)C)c(Cl)c3)n2)s1 [Example 46, N-(3-Chloro-4-{[2-(dimethylamino)ethyl]oxy}phenyl)-4-[4-(3-chlorophenyl)-2-(ethylamino)-1,3-thiazol-5-yl]-2-pyrimidinamine]
7 | < 100 nM | > 1000 nM | > 1000 nM | < 500 nM | < 500 nM | < 500 nM | < 500 nM | < 500 nM | CCc1nc(-c2ccc(CO)c(OC)c2)c(-c2ccnc(Nc3ccc(N4CCN(C(C)=O)CC4)nc3)n2)s1 [Example 55]
8 | < 100 nM | > 1000 nM | > 1000 nM | < 500 nM | < 500 nM | < 500 nM | < 500 nM | 500 to 5000 nM | COc1cc(C)cc(-c2nc(C(C)C)sc2-c2ccnc(Nc3ccc(N4CCOCC4)nc3)n2)c1 [Example 61, 4-{2-(1-Methylethyl)-4-[3-methyl-5-(methyloxy)phenyl]-1,3-thiazol-5-yl}-N-[6-(4-morpholinyl)-3-pyridinyl]-2-pyrimidinamine]
9 | < 100 nM | > 1000 nM | > 1000 nM | < 500 nM | < 500 nM | < 500 nM | < 500 nM | < 500 nM | COc1cc(C)cc(-c2nc(C(C)C)sc2-c2ccnc(Nc3ccc(N4CCN(C(C)=O)CC4)nc3)n2)c1 [Example 63, N-[6-(4-Acetyl-1-piperazinyl)-3-pyridinyl]-4-{2-(1-methylethyl)-4-[3-methyl-5-(methyloxy)phenyl]-1,3-thiazol-5-yl}-2-pyrimidinamine]
10 | < 100 nM | > 1000 nM | > 1000 nM | < 500 nM | < 500 nM | < 500 nM | < 500 nM | < 500 nM | COc1cc(C)cc(-c2nc(CNS(C)(=O)=O)sc2-c2ccnc(Nc3ccc(N4CCN(C(C)=O)CC4)nc3)n2)c1 [Example 64, N-({5-(2-{[6-(4-Acetyl-1-piperazinyl)-3-pyridinyl]amino}-4-pyrimidinyl)-4-[3-methyl-5-(methyloxy)phenyl]-1,3-thiazol-2-yl}methyl)methanesulfonamide]
11 | < 100 nM | < 100 nM | < 100 nM | < 500 nM | < 500 nM | < 500 nM | < 500 nM | 500 to 5000 nM | CCNc1nc(-c2cccc(OC)c2)c(-c2ccnc(Nc3ccc(OCCN4CCCC4)c(F)c3)n2)s1 [Example 72, 4-{2-(Ethylamino)-4-[3-(methyloxy)phenyl]-1,3-thiazol-5-yl}-N-(3-fluoro-4-{[2-(1-pyrrolidinyl)ethyl]oxy}phenyl)-2-pyrimidinamine]
12 | < 100 nM | > 1000 nM | > 1000 nM | < 500 nM | < 500 nM | < 500 nM | < 500 nM | < 500 nM | CCc1nc(-c2cc(O)cc(OC)c2)c(-c2ccnc(Nc3ccc(OC4CCN(CCS(C)(=O)=O)CC4)c(F)c3)n2)s1 [Example 74, trifluoroacetic acid salt]
13 | < 100 nM | < 100 nM | < 100 nM | < 500 nM | < 500 nM | < 500 nM | < 500 nM | 500 to 5000 nM | CCNc1nc(-c2cccc(OC)c2)c(-c2ccnc(Nc3ccc(OCCN(C)C)c(C)c3)n2)s1 [Example 77, N-(4-{[2-(Dimethylamino)ethyl]oxy}-3-methylphenyl)-4-{2-(ethylamino)-4-[3-(methyloxy)phenyl]-1,3-thiazol-5-yl}-2-pyrimidinamine]
14 | < 100 nM | > 1000 nM | > 1000 nM | > 5000 nM | < 500 nM | < 500 nM | < 500 nM | 500 to 5000 nM | CCNc1nc(-c2cc(OC)cc(OC)c2)c(-c2ccnc(Nc3ccc(OC4CCN(CCS(C)(=O)=O)CC4)c(F)c3)n2)o1 [Example 82]
15 | < 100 nM | > 1000 nM | > 1000 nM | 500 to 5000 nM | 500 to 5000 nM | 500 to 5000 nM | 500 to 5000 nM | 500 to 5000 nM | CCNc1nc(-c2cc(OC)cc(OC)c2)c(-c2ccnc(Nc3ccc(OC4CCN(CCS(C)(=O)=O)CC4)c(C)c3)n2)o1 [Example 87]
